Our source for the IC50 values is patent US7868013B2, “Cycloalkyl substituted pyrimidinediamine compounds and their uses” (Rigel Pharmaceuticals, Inc., priority 2004, dated 2011).

In one assay the test system is A549 (lung carcinoma). As to the kind of experiment: In vitro antiproliferation assay, A549 cells (TABLE 1 6 point assay; TABLE 2). It counts as cell-based. The settings on record: A549 cells, read-out: IC50, A549 cells. The method, then:
(§1) Certain compounds were tested against other cell types for their ability to inhibit proliferation in standard antiproliferation assays.

Assay [1] relates to H1299 (non-small cell lung carcinoma). Kind of assay: In vitro antiproliferation assay, H1299 cells (TABLE 1 6 point assay; TABLE 2). Format: cell-based. The settings on record: H1299 cells, read-out: IC50, H1299 cells. The procedure:
as §1

Where [2] appears, read: Homo sapiens, A549, 6 point assay.
The mark [3] stands for this setting: Homo sapiens, NCI-H1299, 6 point assay.

pIC50: −log10 of the molar value. Counter-ions that a name gives are not always drawn. Like-named read-outs stand apart in the source and are kept apart here.

Usually pIC50 stands for the IC50 on a negative log10 scale, so that one unit is a factor of ten. With `Cc1cc(Nc2ncc(F)c(NC3C4C=CC(C4)C3C(N)=O)n2)ccc1O` (racemic) [compound 277, Racemic-(2-exo,3-exo)-N4-(3-aminocarbonylbicyclo[2.2.1]hept-5-en-2-yl)-5-fluoro-N2-(4-hydroxy-3-methylphenyl)-2,4-pyrimidinediamine Bis- Hydrochloride Salt], the negative-log IC50 (pIC50) (in the assay on A549 (lung carcinoma) (6 point assay); in assay [1] (6 point assay)) was at least 7.00 in each case.

`CN1CCN(C(=O)CCCc2ccc(Nc3ncc(F)c(N[C@H]4CCC[C@H]4C(N)=O)n3)cc2)CC1` (racemic) [compound 278, Racemic-cis-N4-(2-aminocarbonylcyclopent-1-yl)-5-fluoro-N2-{4-[(4-methylpiperazin-1-yl)-butan-1-one-4-yl]phenyl}-2,4-pyrimidinediamine]: the negative logarithm of the IC50 (pIC50) (with A549 (lung carcinoma) (setting [2]); in assay [1] (setting [3])) was 5.00 to 6.00 throughout.

On to `CN1CCN(C(=O)Cc2ccc(Nc3ncc(F)c(N[C@H]4CCC[C@H]4C(N)=O)n3)cc2)CC1` (racemic) [compound 279, Racemic-cis-N4-(2-aminocarbonylcyclopent-1-yl)-5-fluoro-N2-{4-[(4-methylpiperazin-1-yl)-ethan-1-one-2-yl]phenyl}-2,4-pyrimidinediamine], for which the pIC50 (in the assay on A549 (lung carcinoma) (setting [2]); in assay [1] (setting [3])) was 5.00 to 6.00 each time.

Take `CN1CCN(C(=O)CCc2ccc(Nc3ncc(F)c(N[C@H]4CCC[C@H]4C(N)=O)n3)cc2)CC1` (racemic) [compound 280, Racemic-cis-N4-(2-aminocarbonylcyclopent-1-yl)-5-fluoro-N2-{4-[(4-methylpiperazin-1-yl)-propan-1-one-3-yl]}phenyl-2,4-pyrimidinediamine]: the pIC50 (in the assay with A549 (lung carcinoma) (setting [2]); in assay [1] (setting [3])) was 5.00 to 6.00 throughout.

Turning to `CN1CCN(C(=O)c2ccc(Nc3ncc(F)c(N[C@H]4CCC[C@H]4C(N)=O)n3)cc2)CC1` (racemic) [compound 281, Racemic-cis-N4-(2-aminocarbonylcyclopent-1-yl)-5-fluoro-N2-[4-(4-methylpiperaino-1-yl-carbonyl)phenyl]-2,4-pyrimidinediamine], the pIC50 (in the assay with A549 (lung carcinoma) (setting [2]); in assay [1] (setting [3])) was 5.00 to 6.00 in each case.

On to `Cc1cc(Nc2ncc(F)c(N[C@H]3CCC[C@H]3C(N)=O)n2)ccc1N1CC2CC1CN2C` (mixture of isomers) [compound 282, Racemic-cis-N4-(2-aminocarbonylcyclopent-1-yl)-5-fluoro-N2-[3-methyl-4-(5-methyl-(1S,4S)-2,5-diazabicyclo[2.2.1]heptan-2-yl)phenyl]-2,4-pyrimidinediamine], for which the pIC50 (with A549 (lung carcinoma) (setting [2]); in assay [1] (setting [3])) was 6.00 to 7.00 each time.

In the case of `Cc1cc(Nc2ncc(F)c(N[C@H]3CCC[C@H]3C(N)=O)n2)ccc1N1CC(C)OC(C)C1` (mixture of isomers) [compound 283, Racemic-cis-N4-(2-aminocarbonylcyclopent-1-yl)-N2-[4-(2,6-dimethylmorpholino)-3-methyl]phenyl-5-fluoro-2,4-pyrimidinediamine], the pIC50 (with A549 (lung carcinoma) (setting [2]); in assay [1] (setting [3])) was 6.00 to 7.00 in each case.

With `Cc1cc(Nc2ncc(F)c(N[C@@H]3CCC[C@H]3C(N)=O)n2)ccc1N1CCN(C)CC1` [15c, (1R,2R)—N4-(2-Aminocarbonylcyclopent-1-yl)-5-fluoro-N2-[4-(4-methylpiperazin-1-yl)-3-methylphenyl]-2,4-pyrimidinediamine], the pIC50 (with A549 (lung carcinoma) (setting [2]); in assay [1] (setting [3])) was 5.00 to 6.00 in each case.

Consider `Cc1cc(Nc2ncc(F)c(N[C@H]3CCC[C@@H]3C(N)=O)n2)ccc1N1CCN(C)CC1` [15d, (1S,2S)—N4-(2-Aminocarbonylcyclopent-1-yl)-5-fluoro-N2-[4-(4-methylpiperazin-1-yl)-3-methylphenyl]-2,4-pyrimidinediamine], for which the negative logarithm of the IC50 (pIC50) (with A549 (lung carcinoma) (setting [2]); in assay [1] (setting [3])) was under 5.00 in each case.
